# From PubChem BioAssay AID2060625 (Molecular Pharmacology Branch, DTP, NCI, 2025)
# Values joined by “and” are separate entries in the source; they are usually repeats but may differ in a detail not shown here. Equal values may be shown once.
# Tested on: 186277-243-T-J2-PDC spheroids with HUVEC/MSC, viability
# Assay: Anticancer human tumor 186277-243-T-J2-PDC patient-derived colon adenocarcinoma cell line growth inhibition [CLK]
# Details: for viability, T/C: stronger effect = lower value
# Outline: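 Patient-derived tumor cells grown as complex spheroids with HUVEC endothelial cells and mesenchymal stem cells, treated with drug combinations. Concentrations descend in half-log steps from near clinical Cmax, or from 10 microM if Cmax unknown.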
# [1] = curve of first compound, second compound 0.0316 µM
# [2] = curve of first compound, second compound 0.1 µM
# [3] = curve of first compound, second compound 0.316 µM
# [4] = curve of first compound, second compound 1 µM
# [5] = curve of first compound, second compound 3.16 µM
# [6] = curve of first compound, second compound 10 µM
# 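Also: compound exposure lasted seven days before readout.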
# 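For viability, T/C in this document: 100% = DMSO vehicle control wells.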
structure (smiles),measurement,setting,value
C#Cc1c(F)ccc2cc(O)cc(-c3ncc4c(N5CC6CCC(C5)N6)nc(OCC56CCCN5CC(F)C6)nc4c3F)c12 (stereo unspecified),"viability, T/C",compound 0.0316 µM,95.5% and 101%
same,"viability, T/C",compound 0.1 µM,73.5% and 89.7%
same,"viability, T/C",compound 0.316 µM,69.2% and 120%
same,"viability, T/C",compound 1 µM,32% and 60%
same,"viability, T/C",compound 3.16 µM,20.9% and 34.8%
same,"viability, T/C",compound 10 µM,14.7% and 21.7%
same,IC50,curve of compound,538 nM and 1440 nM
C=CC(=O)Nc1cc(Nc2nccc(-c3cn(C)c4ccccc34)n2)c(OC)cc1N(C)CCN(C)C + CNC(=O)c1ccc(Nc2nc(OC3CCCC3)c3c(-c4ccc5nc(C)oc5c4)c[nH]c3n2)c(OC)c1,IC50,[1],> 300 nM
same,IC50,[2],203 nM
same,IC50,[3],< 0.949 nM
same,IC50,[4],< 0.949 nM
same,IC50,[5],< 0.949 nM
same,IC50,[6],< 0.949 nM
same,"viability, T/C","second compound 0.0316 µM, first compound 0.000949 µM",118%
same,"viability, T/C","second compound 0.0316 µM, first compound 0.003 µM",109%
same,"viability, T/C","second compound 0.0316 µM, first compound 0.00949 µM",101%
same,"viability, T/C","second compound 0.0316 µM, first compound 0.03 µM",93.7%
same,"viability, T/C","second compound 0.0316 µM, first compound 0.0949 µM",97.9%
same,"viability, T/C","second compound 0.0316 µM, first compound 0.3 µM",101%
same,"viability, T/C","second compound 0.1 µM, first compound 0.000949 µM",84.3%
same,"viability, T/C","second compound 0.1 µM, first compound 0.003 µM",76.1%
same,"viability, T/C","second compound 0.1 µM, first compound 0.00949 µM",73.1%
same,"viability, T/C","second compound 0.1 µM, first compound 0.03 µM",68%
same,"viability, T/C","second compound 0.1 µM, first compound 0.0949 µM",57.4%
same,"viability, T/C","second compound 0.1 µM, first compound 0.3 µM",46%
same,"viability, T/C","second compound 0.316 µM, first compound 0.000949 µM",48.7%
same,"viability, T/C","second compound 0.316 µM, first compound 0.003 µM",46.7%
same,"viability, T/C","second compound 0.316 µM, first compound 0.00949 µM",45%
same,"viability, T/C","second compound 0.316 µM, first compound 0.03 µM",43.4%
same,"viability, T/C","second compound 0.316 µM, first compound 0.0949 µM",39.4%
same,"viability, T/C","second compound 0.316 µM, first compound 0.3 µM",24.1%
same,"viability, T/C","second compound 1 µM, first compound 0.000949 µM",37.4%
same,"viability, T/C","second compound 1 µM, first compound 0.003 µM",36.5%
same,"viability, T/C","second compound 1 µM, first compound 0.00949 µM",32.7%
same,"viability, T/C","second compound 1 µM, first compound 0.03 µM",30.3%
same,"viability, T/C","second compound 1 µM, first compound 0.0949 µM",27%
same,"viability, T/C","second compound 1 µM, first compound 0.3 µM",18.1%
same,"viability, T/C","second compound 3.16 µM, first compound 0.000949 µM",36.3%
same,"viability, T/C","second compound 3.16 µM, first compound 0.003 µM",33.5%
same,"viability, T/C","second compound 3.16 µM, first compound 0.00949 µM",32.3%
same,"viability, T/C","second compound 3.16 µM, first compound 0.03 µM",28.6%
same,"viability, T/C","second compound 3.16 µM, first compound 0.0949 µM",24.8%
same,"viability, T/C","second compound 3.16 µM, first compound 0.3 µM",17.4%
same,"viability, T/C","second compound 10 µM, first compound 0.000949 µM",37.2%
same,"viability, T/C","second compound 10 µM, first compound 0.003 µM",35.6%
same,"viability, T/C","second compound 10 µM, first compound 0.00949 µM",33%
same,"viability, T/C","second compound 10 µM, first compound 0.03 µM",32.4%
same,"viability, T/C","second compound 10 µM, first compound 0.0949 µM",29.3%
same,"viability, T/C","second compound 10 µM, first compound 0.3 µM",21.1%
O=c1[nH]cc(F)c(=O)[nH]1 + CN1CCN(c2cc(C(=O)Nc3cc4cc(-c5cnn(C)c5)ccc4cn3)ccn2)CC1,IC50,[1],> 10000 nM
same,IC50,[2],6160 nM
same,IC50,[3],< 31.6 nM
same,IC50,[4],< 31.6 nM
same,IC50,[5],< 31.6 nM
same,IC50,[6],< 31.6 nM
same,"viability, T/C","second compound 0.0316 µM, first compound 0.0316 µM",86.8%
same,"viability, T/C","second compound 0.0316 µM, first compound 0.1 µM",85.2%
same,"viability, T/C","second compound 0.0316 µM, first compound 0.316 µM",101%
same,"viability, T/C","second compound 0.0316 µM, first compound 1 µM",86.2%
same,"viability, T/C","second compound 0.0316 µM, first compound 3.16 µM",73%
same,"viability, T/C","second compound 0.0316 µM, first compound 10 µM",56.3%
same,"viability, T/C","second compound 0.1 µM, first compound 0.0316 µM",81.4%
same,"viability, T/C","second compound 0.1 µM, first compound 0.1 µM",76.6%
same,"viability, T/C","second compound 0.1 µM, first compound 0.316 µM",87%
same,"viability, T/C","second compound 0.1 µM, first compound 1 µM",82.6%
same,"viability, T/C","second compound 0.1 µM, first compound 3.16 µM",62.6%
same,"viability, T/C","second compound 0.1 µM, first compound 10 µM",40.8%
same,"viability, T/C","second compound 0.316 µM, first compound 0.0316 µM",21.7%
same,"viability, T/C","second compound 0.316 µM, first compound 0.1 µM",19.2%
same,"viability, T/C","second compound 0.316 µM, first compound 0.316 µM",22.6%
same,"viability, T/C","second compound 0.316 µM, first compound 1 µM",23.1%
same,"viability, T/C","second compound 0.316 µM, first compound 3.16 µM",23.5%
same,"viability, T/C","second compound 0.316 µM, first compound 10 µM",21%
same,"viability, T/C","second compound 1 µM, first compound 0.0316 µM",1.33%
same,"viability, T/C","second compound 1 µM, first compound 0.1 µM",0.66%
same,"viability, T/C","second compound 1 µM, first compound 0.316 µM",0.91%
same,"viability, T/C","second compound 1 µM, first compound 1 µM",1.78%
same,"viability, T/C","second compound 1 µM, first compound 3.16 µM",1.34%
same,"viability, T/C","second compound 1 µM, first compound 10 µM",1.32%
same,"viability, T/C","second compound 3.16 µM, first compound 0.0316 µM",3.16%
same,"viability, T/C","second compound 3.16 µM, first compound 0.1 µM",0.66%
same,"viability, T/C","second compound 3.16 µM, first compound 0.316 µM",1.53%
same,"viability, T/C","second compound 3.16 µM, first compound 1 µM",0.93%
same,"viability, T/C","second compound 3.16 µM, first compound 3.16 µM",2.49%
same,"viability, T/C","second compound 3.16 µM, first compound 10 µM",0.81%
same,"viability, T/C","second compound 10 µM, first compound 0.0316 µM",3.05%
same,"viability, T/C","second compound 10 µM, first compound 0.1 µM",0.66%
same,"viability, T/C","second compound 10 µM, first compound 0.316 µM",0.92%
same,"viability, T/C","second compound 10 µM, first compound 1 µM",1.07%
same,"viability, T/C","second compound 10 µM, first compound 3.16 µM",0.96%
same,"viability, T/C","second compound 10 µM, first compound 10 µM",0.38%
